Source: patent US12077503B2, “Substituted cyclic amides and their use as herbicides” (FMC CORPORATION, priority 2015, dated 2024)

How the values were obtained:
Assay type in all cases: in vivo
corn (Zea mays) [1] = test: Test G Post-Emergence Protocol; conditions: Zea mays, post-emergence, 312 h; for plant injury at 15.625 g/ha: 15.625 g ai/ha, evaluated after 13 days (100=total damage to plant; 0=no damage to plant), read-out: Corn damage rating; for plant injury at 62.5 g/ha: 62.5 g ai/ha, read-out: Corn damage rating (100=total damage to plant; 0=no damage to plant); for plant injury at 62.5 g/ha / plant injury at 250 g/ha: evaluated after 13 days; for plant injury at 250 g/ha: 250 g ai/ha, read-out: damage to plant, Corn (100=total damage to plant; 0=no damage to plant)
Method in brief: (§1)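 Pot-grown seedlings, 8 days old, raised in a glasshouse at 24/16 °C day/night with 14 h light and 65% humidity, were sprayed post-emergence with test compound in acetone/water (50:50) plus 0.5% Tween 20 at 15.625, 62.5 or 250 g/ha. Damage was scored visually 13 days later on a 0–100 scale (100 = total damage).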

[2] = system: barnyardgrass (Echinochloa crus-galli); test: Test G Post-Emergence Protocol; conditions: Echinochloa crus-galli, post-emergence, 312 h; for pest or weed control at 15.625 g/ha: 15.625 g ai/ha, evaluated after 13 days (100=total damage to plant; 0=no damage to plant), read-out: Barnyardgrass damage rating; for pest or weed control at 62.5 g/ha: 62.5 g ai/ha, read-out: Barnyardgrass damage rating (100=total damage to plant; 0=no damage to plant); for pest or weed control at 62.5 g/ha / pest or weed control at 250 g/ha: evaluated after 13 days; for pest or weed control at 250 g/ha: 250 g ai/ha, read-out: damage to plant, Barnyardgrass (100=total damage to plant; 0=no damage to plant)
Method in brief: as §1

[3] = system: giant foxtail (Setaria faberi); test: Test G Post-Emergence Protocol; conditions: Setaria faberi, post-emergence, 312 h; for pest or weed control at 15.625 g/ha: 15.625 g ai/ha, evaluated after 13 days (100=total damage to plant; 0=no damage to plant), read-out: Foxtail, Giant damage rating; for pest or weed control at 62.5 g/ha: 62.5 g ai/ha, read-out: Foxtail, Giant damage rating (100=total damage to plant; 0=no damage to plant); for pest or weed control at 62.5 g/ha / pest or weed control at 250 g/ha: evaluated after 13 days; for pest or weed control at 250 g/ha: 250 g ai/ha, read-out: damage to plant, Foxtail, Giant (100=total damage to plant; 0=no damage to plant)
Method in brief: as §1

[4] = system: redroot pigweed (Amaranthus retroflexus); test: Test G Post-Emergence Protocol; conditions: Amaranthus retroflexus, post-emergence, 312 h; for pest or weed control at 15.625 g/ha: 15.625 g ai/ha, evaluated after 13 days (100=total damage to plant; 0=no damage to plant), read-out: Pigweed, Redroot damage rating; for pest or weed control at 62.5 g/ha: 62.5 g ai/ha, read-out: Pigweed, Redroot damage rating (100=total damage to plant; 0=no damage to plant); for pest or weed control at 62.5 g/ha / pest or weed control at 250 g/ha: evaluated after 13 days; for pest or weed control at 250 g/ha: 250 g ai/ha, read-out: damage to plant, Pigweed, Redroot (100=total damage to plant; 0=no damage to plant)
Method in brief: as §1

[5] = system: velvetleaf (Abutilon theophrasti); test: Test G Post-Emergence Protocol; conditions: Abutilon theophrasti, post-emergence, 312 h; for pest or weed control at 15.625 g/ha: 15.625 g ai/ha, evaluated after 13 days (100=total damage to plant; 0=no damage to plant), read-out: Velvetleaf damage rating; for pest or weed control at 62.5 g/ha: 62.5 g ai/ha, read-out: Velvetleaf damage rating (100=total damage to plant; 0=no damage to plant); for pest or weed control at 62.5 g/ha / pest or weed control at 250 g/ha: evaluated after 13 days; for pest or weed control at 250 g/ha: 250 g ai/ha, read-out: damage to plant, Velvetleaf (100=total damage to plant; 0=no damage to plant)
Method in brief: as §1

[6] = system: ivy-leaved morning glory (Ipomoea hederacea); test: Test G Post-Emergence Protocol; conditions: Ipomoea, post-emergence, 312 h; for pest or weed control at 15.625 g/ha: 15.625 g ai/ha, evaluated after 13 days (100=total damage to plant; 0=no damage to plant), read-out: Morningglory, Ivy-leaved damage rating; for pest or weed control at 62.5 g/ha: 62.5 g ai/ha, read-out: Morningglory, Ivy-leaved damage rating (100=total damage to plant; 0=no damage to plant); for pest or weed control at 62.5 g/ha / pest or weed control at 250 g/ha: evaluated after 13 days; for pest or weed control at 250 g/ha: 250 g ai/ha, read-out: damage to plant, Morningglory, Ivy-leaved (100=total damage to plant; 0=no damage to plant)
Method in brief: as §1

corn (Zea mays) [7] = test: Test G Pre-Emergence Protocol; conditions: Zea mays, pre-emergence, 312 h, evaluated after 13 days; for plant injury at 15.625 g/ha: 15.625 g ai/ha; for plant injury at 15.625 g/ha / plant injury at 250 g/ha: read-out: Corn damage rating (100=total damage to plant; 0=no damage to plant); for plant injury at 62.5 g/ha: 62.5 g ai/ha, 100=total damage to plant, 0=no damage to plant, read-out: plant damage rating, Corn; for plant injury at 250 g/ha: 250 g ai/ha
Method in brief: (§2)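 Pre-emergence spray, 15.625/62.5/250 g/ha, vehicle acetone:water 50:50 + 0.5% Tween 20, applied 1 d after sowing. Glasshouse 24/16° C, 14 h light, 65% RH, watered twice daily. Visual damage rating at 13 d, 0–100 scale.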

[8] = system: barnyardgrass (Echinochloa crus-galli); test: Test G Pre-Emergence Protocol; conditions: Echinochloa crus-galli, pre-emergence, 312 h, evaluated after 13 days; for pest or weed control at 15.625 g/ha: 15.625 g ai/ha, read-out: Barnyard grass damage rating (100=total damage to plant; 0=no damage to plant); for pest or weed control at 62.5 g/ha: 62.5 g ai/ha, 100=total damage to plant, 0=no damage to plant, read-out: plant damage rating, Barnyardgrass; for pest or weed control at 250 g/ha: 250 g ai/ha, read-out: Barnyardgrass damage rating (100=total damage to plant; 0=no damage to plant)
Method in brief: as §2

[9] = system: giant foxtail (Setaria faberi); test: Test G Pre-Emergence Protocol; conditions: Setaria faberi, pre-emergence, 312 h, evaluated after 13 days; for pest or weed control at 15.625 g/ha: 15.625 g ai/ha; for pest or weed control at 15.625 g/ha / pest or weed control at 250 g/ha: read-out: Foxtail, Giant damage rating (100=total damage to plant; 0=no damage to plant); for pest or weed control at 62.5 g/ha: 62.5 g ai/ha, 100=total damage to plant, 0=no damage to plant, read-out: plant damage rating, Foxtail, Giant; for pest or weed control at 250 g/ha: 250 g ai/ha
Method in brief: as §2

[10] = system: redroot pigweed (Amaranthus retroflexus); test: Test G Pre-Emergence Protocol; conditions: Amaranthus retroflexus, pre-emergence, 312 h, evaluated after 13 days; for pest or weed control at 15.625 g/ha: 15.625 g ai/ha; for pest or weed control at 15.625 g/ha / pest or weed control at 250 g/ha: read-out: Pigweed, Redroot damage rating (100=total damage to plant; 0=no damage to plant); for pest or weed control at 62.5 g/ha: 62.5 g ai/ha, 100=total damage to plant, 0=no damage to plant, read-out: plant damage rating, Pigweed, Redroot; for pest or weed control at 250 g/ha: 250 g ai/ha
Method in brief: as §2

[11] = system: velvetleaf (Abutilon theophrasti); test: Test G Pre-Emergence Protocol; conditions: Abutilon theophrasti, pre-emergence, 312 h, evaluated after 13 days; for pest or weed control at 15.625 g/ha: 15.625 g ai/ha; for pest or weed control at 15.625 g/ha / pest or weed control at 250 g/ha: read-out: Velvetleaf damage rating (100=total damage to plant; 0=no damage to plant); for pest or weed control at 62.5 g/ha: 62.5 g ai/ha, 100=total damage to plant, 0=no damage to plant, read-out: plant damage rating, Velvetleaf; for pest or weed control at 250 g/ha: 250 g ai/ha
Method in brief: as §2

[12] = system: ivy-leaved morning glory (Ipomoea hederacea); test: Test G Pre-Emergence Protocol; conditions: Ipomoea, pre-emergence, 312 h, evaluated after 13 days; for pest or weed control at 15.625 g/ha: 15.625 g ai/ha, read-out: Morning-glory, Ivy-leaved damage rating (100=total damage to plant; 0=no damage to plant); for pest or weed control at 62.5 g/ha: 62.5 g ai/ha, 100=total damage to plant, 0=no damage to plant, read-out: plant damage rating, Morningglory, Ivy-leaved; for pest or weed control at 250 g/ha: 250 g ai/ha, read-out: Morningglory, Ivy-leaved damage rating (100=total damage to plant; 0=no damage to plant)
Method in brief: as §2

COc1c(Cl)cccc1NC(=O)[C@H]1C(=O)N(C)C[C@@H]1c1ccc(C(F)(F)F)cc1 (racemic) [Compound 1447]
plant injury at 15.625 g/ha (corn (Zea mays) [1]): 0%
plant injury at 62.5 g/ha (corn (Zea mays) [1]): 10%
plant injury at 250 g/ha (corn (Zea mays) [1]): 10%
pest or weed control at 15.625 g/ha [2]: 0%
pest or weed control at 62.5 g/ha [2]: 0%
pest or weed control at 250 g/ha [2]: 0%
pest or weed control at 15.625 g/ha [3]: 10%
pest or weed control at 62.5 g/ha [3]: 20%
pest or weed control at 250 g/ha [3]: 50%
pest or weed control at 15.625 g/ha [4]: 0%
pest or weed control at 62.5 g/ha [4]: 0%
pest or weed control at 250 g/ha [4]: 0%
pest or weed control at 15.625 g/ha [5]: 0%
pest or weed control at 62.5 g/ha [5]: 0%
pest or weed control at 250 g/ha [5]: 0%
pest or weed control at 15.625 g/ha [6]: 0%
pest or weed control at 62.5 g/ha [6]: 0%
pest or weed control at 250 g/ha [6]: 0%
plant injury at 15.625 g/ha (corn (Zea mays) [7]): 0%
plant injury at 62.5 g/ha (corn (Zea mays) [7]): 0%
plant injury at 250 g/ha (corn (Zea mays) [7]): 20%
pest or weed control at 15.625 g/ha [8]: 0%
pest or weed control at 62.5 g/ha [8]: 0%
pest or weed control at 250 g/ha [8]: 10%
pest or weed control at 15.625 g/ha [9]: 50%
pest or weed control at 62.5 g/ha [9]: 50%
pest or weed control at 250 g/ha [9]: 60%
pest or weed control at 15.625 g/ha [10]: 0%
pest or weed control at 62.5 g/ha [10]: 0%
pest or weed control at 250 g/ha [10]: 0%
pest or weed control at 15.625 g/ha [11]: 0%
pest or weed control at 62.5 g/ha [11]: 0%
pest or weed control at 250 g/ha [11]: 0%
pest or weed control at 15.625 g/ha [12]: 0%
pest or weed control at 62.5 g/ha [12]: 0%
pest or weed control at 250 g/ha [12]: 0%

Cc1ccc(NC(=O)[C@H]2C(=O)N(C)C[C@@H]2c2ccc(C(F)(F)F)cc2)c(C)c1C (racemic) [Compound 1448]
plant injury at 15.625 g/ha (corn (Zea mays) [1]): 0%
plant injury at 62.5 g/ha (corn (Zea mays) [1]): 0%
plant injury at 250 g/ha (corn (Zea mays) [1]): 10%
pest or weed control at 15.625 g/ha [2]: 0%
pest or weed control at 62.5 g/ha [2]: 0%
pest or weed control at 250 g/ha [2]: 0%
pest or weed control at 15.625 g/ha [3]: 0%
pest or weed control at 62.5 g/ha [3]: 0%
pest or weed control at 250 g/ha [3]: 0%
pest or weed control at 15.625 g/ha [4]: 0%
pest or weed control at 62.5 g/ha [4]: 0%
pest or weed control at 250 g/ha [4]: 30%
pest or weed control at 15.625 g/ha [5]: 0%
pest or weed control at 62.5 g/ha [5]: 0%
pest or weed control at 250 g/ha [5]: 0%
pest or weed control at 15.625 g/ha [6]: 0%
pest or weed control at 62.5 g/ha [6]: 0%
pest or weed control at 250 g/ha [6]: 0%
plant injury at 15.625 g/ha (corn (Zea mays) [7]): 0%
plant injury at 62.5 g/ha (corn (Zea mays) [7]): 0%
plant injury at 250 g/ha (corn (Zea mays) [7]): 0%
pest or weed control at 15.625 g/ha [8]: 0%
pest or weed control at 62.5 g/ha [8]: 0%
pest or weed control at 250 g/ha [8]: 0%
pest or weed control at 15.625 g/ha [9]: 0%
pest or weed control at 62.5 g/ha [9]: 20%
pest or weed control at 250 g/ha [9]: 60%
pest or weed control at 15.625 g/ha [10]: 0%
pest or weed control at 62.5 g/ha [10]: 0%
pest or weed control at 250 g/ha [10]: 0%
pest or weed control at 15.625 g/ha [11]: 0%
pest or weed control at 62.5 g/ha [11]: 0%
pest or weed control at 250 g/ha [11]: 0%
pest or weed control at 15.625 g/ha [12]: 0%
pest or weed control at 62.5 g/ha [12]: 0%
pest or weed control at 250 g/ha [12]: 0%
